From patent US6346535B1, “Fungicidal mixtures” (American Cyanamid Company, priority 1999, dated 2002)
Read-outs that look alike come from different tables or passages of the source.

Tests used:
Assay type in all cases: in vivo
[1] = tested on: Leptosphaeria nodorum on wheat; assay: Greenhouse trial, 4 day residual, Leptosphaeria nodorum on wheat; settings: Table VIII, compound alone
From the text: (§1) The fungicides are applied in single treatments, or in a combination comprising a benzophenone of formula I and a compound selected from (A) through (E) as defined above. The compounds are applied in form of an aqueous spray mix obtained from a concentrated formulation or the technical material.
(§2) 1. Seed is planted in 6 cm diameter plastic pots and maintained in the greenhouse.
(§3) 2. When the primary leaf is fully expanded (in the case of cereals) or several leaves are present (in the case of dicots), formulated test compounds are sprayed with a three nozzle overhead fungicide sprayer to near run-off. Alternatively, a single nozzle overhead track sprayer is used for application of the compounds to cereals at a rate of 200 liters/ha (l/ha). Plants are then allowed to air-dry.
(§4) 3. Inoculation precedes treatment in the case of curative evaluations and follows treatment in case of residual evaluations. For inoculation of powdery mildew disease, plants are set up on greenhouse benches with bottom watering mats and inoculated by dusting them with conidia from infected plants. Between inoculation and treatment for curative evaluations and between treatment and inoculation for residual evaluations, plants are maintained in the greenhouse with bottom watering. For inoculation of non-powdery mildew diseases, an aqueous spore suspension of the pathogen is applied to the plant and the plants are kept 1-2 days in a moist infection chamber before being returned to the greenhouse where they are maintained by bottom watering.
(§5) 4. Disease on the foliage as percent leaf area with disease symptoms/signs is evaluated about 7 days after inoculation. In the case of wheat, the tips and bases of the leaves are excluded from the evaluation. [formula]
(§6) 1. Technical compounds are formulated in a solvent/surfactant system consisting of 5% acetone and 0.05% Tween 20 in deionized water. Compounds are dissolved in acetone prior to addition of the water; the Tween 20 can be added through either the acetone or the water. Dilutions are made using the solvent/surfactant system. Formulated compounds are prepared using deionized water.
(§7) Assessments of the diseases took place at the indicated day after the application of the compounds. Per cent infected leaf area infected was evaluated. The efficacy of the compounds/compounds mixtures to control the diseases was calculated by using the formula given above under item 4: […]
(§8) Synergy of a fungicide mixture was determined by comparing the actual (observed) fungicidal activity of the mixture to the expected fungicidal activity of the mixture as calculated using the COLBY formula given hereinabove.
Fungicidal Efficacy of the Mixture of BP-4+Other Fungicides (4 Day Residual) Against Leptosphaeria nodorum on Wheat

[2] = tested on: Puccinia recondita on wheat; assay: Greenhouse trial, 4 day residual, Puccinia recondita on wheat; settings: for pest or weed control at 50 ppm: dose rate 50 ppm
From the text: as §1, §2, §3, §4, §5, §6, §7, §8
Fungicidal Efficacy of the Mixture of BP-4+Other Fungicides (4 Day Residual) Against Puccinia recondita on Wheat
Fungicidal Efficacy of the Mixture of BP-4+Myclobutanil (4 Day Residual) Against Puccinia recondita on Wheat

[3] = tested on: Blumeria graminis on wheat; assay: Greenhouse trial, 3 day protective, Blumeria graminis on wheat; settings: Table IV, compound alone
From the text: as §1, §2, §3, §4, §5, §6, §7, §8
Fungicidal Efficacy of the Mixture of BP-5+Triforine (3 Day Protective) Against Blumeria graminis on Wheat
Fungicidal Efficacy of the Mixture of BP-1+Triadimefon (3 Day Protective) Against Blumeria graminis on Wheat

[4] = tested on: Erysiphe cichoracearum on cucumbers; assay: Greenhouse trial, 4 day residual, Erysiphe cichoracearum on cucumbers; settings: for pest or weed control at 10 ppm: dose rate 10 ppm
From the text: as §1, §2, §3, §4, §5, §6, §7, §8

[5] = tested on: Blumeria graminis on wheat; assay: Greenhouse trial, 4 day curative, Blumeria graminis on wheat; settings: compound alone
Description: The trials are carried out under greenhouse (Examples 1 to 18) or field conditions (Example 19) in residual or curative applications. The fungicides are applied in single treatments, or in a combination comprising a benzophenone of formula I and a compound selected from (A) through (E) as defined above. The compounds are applied in form of an aqueous spray mix obtained from a concentrated formulation or the technical material. […] Seed is planted in 6 cm diameter plastic pots and maintained in the greenhouse. […] When the primary leaf is fully expanded (in the case of cereals) or several leaves are present (in the case of dicots), formulated test compounds are sprayed with a three nozzle overhead fungicide sprayer to near run-off. Alternatively, a single nozzle overhead track sprayer is used for application of the compounds to cereals at a rate of 200 liters/ha (l/ha). Plants are then allowed to air-dry. […] Inoculation precedes treatment in the case of curative evaluations and follows treatment in case of residual evaluations. For inoculation of powdery mildew disease, plants are set up on greenhouse benches with bottom watering mats and inoculated by dusting them with conidia from infected plants. Between inoculation and treatment for curative evaluations and between treatment and inoculation for residual evaluations, plants are maintained in the greenhouse with bottom watering. For inoculation of non-powdery mildew diseases, an aqueous spore suspension of the pathogen is applied to the plant and the plants are kept 1-2 days in a moist infection chamber before being returned to the greenhouse where they are maintained by bottom watering. […] Disease on the foliage as percent leaf area with disease symptoms/signs is evaluated about 7 days after inoculation. In the case of wheat, the tips and bases of the leaves are excluded from the evaluation. [formula] […] Compounds are dissolved in acetone prior to addition of the water; the Tween 20 can be added through either the acetone or the water. Dilutions are made using the solvent/surfactant system. Formulated compounds are prepared using deionized water. Assessments of the diseases took place at the indicated day after the application of the compounds. Per cent infected leaf area infected was evaluated. […] Synergy of a fungicide mixture was determined by comparing the actual (observed) fungicidal activity of the mixture to the expected fungicidal activity of the mixture as calculated using the COLBY formula given hereinabove.

[6] = tested on: Uncinula necator on vines; assay: Greenhouse trial, 1 day residual, Uncinula necator on vines; settings: Table XVIII, compound alone
Description: as §1, with “The trials are carried out under greenhouse (Examples 1 to 18) or field conditions (Example 19) in residual or curative applications. The fungicides” for “The fungicides”
as §2, §3, §4, §5, §6, §7, §8
Fungicidal Efficacy of the Mixture of BP-4+AP-4 (1 Day Residual) Against Uncinula necator on Vines
The tank mixes were obtained from technical material of BP-4 and AP-4. The active ingredients, the type of formulations, the observed and expected efficacies with different rates are given in Table XVIII: […]

[7] = tested on: Blumeria graminis f. sp. tritici on wheat; assay: Greenhouse trial, 2 day curative, Blumeria graminis f. sp. tritici on wheat; settings: Table XVII, compound alone
Description: as §1, with “The trials are carried out under greenhouse (Examples 1 to 18) or field conditions (Example 19) in residual or curative applications. The fungicides” for “The fungicides”
as §2, §3, §4, §5, §6, §7, §8
Fungicidal Efficacy of the Mixture of Different Benzophenones+Metconazole (2 Day Curative) Against Blumeria graminis f. sp. tritici on Wheat
The tank mixes were obtained from technical material of the benzophenones BP-2 and BP-4 and metconazole.

[8] = tested on: Pyrenophora teres on barley; assay: Greenhouse trial, 4 day residual, Pyrenophora teres on barley; settings: 4 day residual
From the text: as §1, §2, §3, §4, §5, §6, §7, §8
Fungicidal Efficacy of the Mixture of BP-4+Other Fungicides (4 Day Residual) Against Pyrenophora teres on Barley

triforine was tested, and the “Observed Efficacy” value ([1]; dose rate 1 ppm) was 0%, the “Observed Efficacy” value ([1]; dose rate 4 ppm) was 4% and the “Observed Efficacy” value ([1]; dose rate 16 ppm) was 31%. The “Observed Efficacy” value ([1]; dose rate 64 ppm) was 51%, the “Observed Efficacy” value ([1]; dose rate 256 ppm) was 85% and the “Observed Efficacy” value ([2]; Table VII, compound alone, dose rate 4 ppm) was 0%. For the same compound, the “Observed Efficacy” value ([2]; Table VII, compound alone, dose rate 16 ppm) was 7%, the “Observed Efficacy” value ([2]; Table VII, compound alone, dose rate 64 ppm) was 90% and the “Observed Efficacy” value ([2]; Table VII, compound alone, dose rate 256 ppm) was 100%. The “Observed Efficacy” value ([3]; dose rate 125 ppm) was 12%, the “Observed Efficacy” value ([4]; Table VI, compound alone, dose rate 4 ppm) was 1% and the “Observed Efficacy” value ([4]; Table VI, compound alone, dose rate 16 ppm) was 44%. For the same compound, the “Observed Efficacy” value ([4]; Table VI, compound alone, dose rate 64 ppm) was 79% and the “Observed Efficacy” value ([4]; Table VI, compound alone, dose rate 256 ppm) was 96%.
For `CC1CCN(c2c(-c3c(F)cccc3Cl)c(Cl)nc3ncnn23)CC1` [AP-2, 5-chloro-6-(2-chloro-6-fluorophenyl)-7-(4-methylpiperid-1-yl)-[1,2,4]triazolo[1,5-a]pyrimidine], the “Observed Efficacy” value ([5]; Table II, dose rate 25 ppm) was 0% and the “Observed Efficacy” value ([5]; Table II, dose rate 125 ppm) was 8%.
`CC(Nc1c(-c2c(F)cc(F)cc2F)c(Cl)nc2ncnn12)C(F)(F)F` (stereo not drawn) [AP-4, 5-chloro-6-(2,4,6-trifluorophenyl)-7-[2-(1,1,1-trifluoro)propylamino]-[1,2,4]triazolo[1,5-a]pyrimidine] was tested, and the “Observed Efficacy” value ([6]; dose rate 0.03 ppm) was 13%, the “Observed Efficacy” value ([6]; dose rate 0.06 ppm) was 7% and the “Observed Efficacy” value ([6]; dose rate 0.12 ppm) was 32%. For the same compound, the “Observed Efficacy” value ([6]; dose rate 0.25 ppm) was 50%, the “Observed Efficacy” value ([6]; dose rate 0.5 ppm) was 76% and the “Observed Efficacy” value ([6]; dose rate 1 ppm) was 76%.
In the case of `COc1cc(C)c(C(=O)c2c(Cl)cccc2Cl)c(OCc2ccccc2F)c1OC` [BP-2, 2,6-dichloro-4′,5′-dimethoxy-6′-(2-fluorobenzyloxy)-2′-methylbenzophenone], the “Observed Efficacy” value ([7]; dose rate 0.67 ppm) is reported as 4%, the “Observed Efficacy” value ([7]; dose rate 2 ppm) is reported as 13% and the “Observed Efficacy” value ([7]; dose rate 6 ppm) is reported as 18%. The “Observed Efficacy” value ([7]; dose rate 18 ppm) was 25% and the “Observed Efficacy” value ([7]; dose rate 54 ppm) was 67%.
In the case of Dinocap, the “Observed Efficacy” value ([2]; Table XV (Example 15), 4 day residual, dose rate 0.4 ppm) is reported as 4, the “Observed Efficacy” value ([2]; Table XV (Example 15), 4 day residual, dose rate 2 ppm) is reported as 13 and the “Observed Efficacy” value ([2]; Table XV (Example 15), 4 day residual, dose rate 10 ppm) is reported as 23. The “Observed Efficacy” value ([8]; Table XVI (Example 16), dose rate 0.4 ppm) was 0, the “Observed Efficacy” value ([8]; Table XVI (Example 16), dose rate 2 ppm) was 0 and the “Observed Efficacy” value ([8]; Table XVI (Example 16), dose rate 10 ppm) was 5. The “Observed Efficacy” value ([4]; Table XIV (Example 14), 4 day residual, dose rate 0.4 ppm) was 0 and the “Observed Efficacy” value ([4]; Table XIV (Example 14), 4 day residual, dose rate 2 ppm) was 0.
In the case of `COc1cc(C)c(C(=O)c2c(Cl)cccc2Cl)c(OC)c1OC` [BP-5, 2,6-dichloro-2′-methyl-4′,5′,6′-trimethoxybenzophenone], the “Observed Efficacy” value ([3]; dose rate 5 ppm) is reported as 12% and the “Observed Efficacy” value ([3]; dose rate 25 ppm) is reported as 31%.
In the case of `Fc1cccc(Cl)c1-c1c(Cl)nc2ncnn2c1NC1CC1` [AP-1, 5-chloro-6-(2-chloro-6-fluorophenyl)-7-(cyclopropylamino)-[1,2,4]triazolo[1,5-a]pyrimidine], the “Observed Efficacy” value ([5]; Table I, dose rate 25 ppm) is reported as 0% and the “Observed Efficacy” value ([5]; Table I, dose rate 125 ppm) is reported as 0%.
Compound `CC(Cc1ccc(C(C)(C)C)cc1)CN1C[C@@H](C)O[C@@H](C)C1` (stereo partly drawn) [Fenpropimorph] has a pest or weed control at 0.4 ppm ([2]; Puccinia recondita, 96 h, Table XV (Example 15), 4 day residual, dose rate 0.4 ppm, read-out: Observed Efficacy) of 2%, a pest or weed control at 2 ppm ([2]; Puccinia recondita, 96 h, Table XV (Example 15), 4 day residual, dose rate 2 ppm, read-out: Observed Efficacy) of 15% and a pest or weed control at 50 ppm ([2]; Puccinia recondita, 96 h, Table XV (Example 15), 4 day residual, read-out: Observed Efficacy) of 60%. For the same compound, the pest or weed control at 0.4 ppm ([8]; Pyrenophora teres, 96 h, Table XVI (Example 16), dose rate 0.4 ppm, read-out: Observed Efficacy) was 0%, the pest or weed control at 2 ppm ([8]; Pyrenophora teres, 96 h, Table XVI (Example 16), dose rate 2 ppm, read-out: Observed Efficacy) was 0% and the pest or weed control at 10 ppm ([8]; Pyrenophora teres, 96 h, Table XVI (Example 16), dose rate 10 ppm, read-out: Observed Efficacy) was 3%. For the same compound, the pest or weed control at 0.4 ppm ([4]; Golovinomyces cichoracearum, 96 h, Table XIV (Example 14), 4 day residual, dose rate 0.4 ppm, read-out: Observed Efficacy) was 0%, the pest or weed control at 2 ppm ([4]; Golovinomyces cichoracearum, 96 h, Table XIV (Example 14), 4 day residual, dose rate 2 ppm, read-out: Observed Efficacy) was 0% and the pest or weed control at 10 ppm ([4]; Golovinomyces cichoracearum, 96 h, Table XIV (Example 14), 4 day residual, read-out: Observed Efficacy) was 7%.
`CCCCC(C#N)(Cn1cncn1)c1ccc(Cl)cc1` (stereo not drawn) [Myclobutanil] was tested, and the pest or weed control at 0.4 ppm ([2]; Puccinia recondita, 96 h, Table XII, compound alone, dose rate 0.4 ppm, read-out: Observed Efficacy) was 13%, the pest or weed control at 2 ppm ([2]; Puccinia recondita, 96 h, Table XII, compound alone, dose rate 2 ppm, read-out: Observed Efficacy) was 52% and the pest or weed control at 10 ppm ([2]; Puccinia recondita, 96 h, Table XII, compound alone, dose rate 10 ppm, read-out: Observed Efficacy) was 72%. It also gave a pest or weed control at 50 ppm ([2]; Puccinia recondita, 96 h, Table XII, compound alone, read-out: Observed Efficacy) of 99%, a pest or weed control at 0.4 ppm ([8]; Pyrenophora teres, 96 h, Table XIII (Example 13), dose rate 0.4 ppm, read-out: Observed Efficacy) of 0% and a pest or weed control at 2 ppm ([8]; Pyrenophora teres, 96 h, Table XIII (Example 13), dose rate 2 ppm, read-out: Observed Efficacy) of 21%. It also gave a pest or weed control at 10 ppm ([8]; Pyrenophora teres, 96 h, Table XIII (Example 13), dose rate 10 ppm, read-out: Observed Efficacy) of 40%, a pest or weed control at 50 ppm ([8]; Pyrenophora teres, 96 h, Table XIII (Example 13), dose rate 50 ppm, read-out: Observed Efficacy) of 82% and a pest or weed control at 0.4 ppm ([4]; Golovinomyces cichoracearum, 96 h, Table XI, compound alone, dose rate 0.4 ppm, read-out: Observed Efficacy) of 36%. It also gave a pest or weed control at 2 ppm ([4]; Golovinomyces cichoracearum, 96 h, Table XI, compound alone, dose rate 2 ppm, read-out: Observed Efficacy) of 52%, a pest or weed control at 10 ppm ([4]; Golovinomyces cichoracearum, 96 h, Table XI, compound alone, read-out: Observed Efficacy) of 73% and a pest or weed control at 50 ppm ([4]; Golovinomyces cichoracearum, 96 h, Table XI, compound alone, dose rate 50 ppm, read-out: Observed Efficacy) of 96%.
